What all share (assay type): in vivo
In experiment [1] the test system is barnyardgrass (Echinochloa crus-galli). Briefly: Test F pre-/postemergence: barnyardgrass. From the text: (§1) Seeds of plant species selected from corn (Zea mays), soybean (Glycine max), velvetleaf (Abutilon theophrasti), lambsquarters (Chenopodium album), poinsettia, wild (wild poinsettia, Euphorbia heterophylla), pigweed, palmer (palmer pigweed, Amaranthus palmeri), waterhemp (common waterhemp, Amaranthus rudis), surinam grass (Brachiaria decumbens), crabgrass, Brazil (Brazilian crabgrass, Digitaria horizontalis), panicum, fall (fall panicum Panicum dichotomiflorum), crabgrass, large (large crabgrass, Digitaria sanguinalis), foxtail, giant (giant foxtail, Setaria faberii), foxtail, green (green foxtail Setaria viridis), goosegrass (Eleusine indica), ragweed (common ragweed, Ambrosia elatior), barnyardgrass (Echinochloa crus-galli), sandbur (southern sandbur, Cenchrus echinatus), arrowleaf sida (Sida rhombifolia), ryegrass, Italian (Italian ryegrass, Lolium multiflorum), dayflower, VA (Virginia (VA) dayflower, Commelina virginica), field bindweed (Convolvulus arvensis), cocklebur (common cocklebur, Xanthium strumarium), morningglory (Ipomoea coccinea), nightshade (eastern black nightshade, Solanum ptycanthum), kochia (Kochia scoparia), nutsedge, yellow (yellow nutsedge, Cyperus esculentus), johnsongrass (Sorghum halepense), smartweed (ladysthumb smartweed, Polygonum persicaria), and beggarticks (hairy beggarticks, Bidens pilosa), were planted into a silt loam soil and treated preemergence with test chemicals formulated in a non-phytotoxic solvent mixture which included a surfactant. At the same time, plants selected from these crop and weed species and also pigweed (Amaranthus retroflexus), waterhemp_RES1 (ALS/Triazine resistant common waterhemp, Amaranthus rudis) and waterhemp_RES2 (ALS/HPPD resistant common waterhemp, Amaranthus rudis) were planted in pots containing a planting medium comprising spaghnum peat moss, vermiculite, wetting agent and starter nutrients treated with postemergence applications of some of the test chemicals formulated in the same manner. Plants ranged in height from 2 to 18 cm for postemergence treatments (1- to 4-leaf stage).
(§2) Treated plants and controls were maintained in a greenhouse for 14 to 21 days, after which time all species were compared to controls and visually evaluated. Plant response ratings, summarized in Table E, are based on a scale of 0 to 100 where 0 is no effect and 100 is complete control. A dash (-) response means no test result.

The test system of experiment [2] is cocklebur (common cocklebur, Xanthium strumarium). Briefly: Test F pre-/postemergence: cocklebur. The following applies: Preemergence.
Text: as §1, §2

The test system of experiment [3] is waterhemp (common waterhemp, Amaranthus rudis). Briefly: Test E pre-/postemergence: waterhemp. The following applies: scale 0 to 100.
Text: (§3) Seeds of plant species selected from corn (Zea mays), soybean (Glycine max), velvetleaf (Abutilon theophrasti), lambsquarters (Chenopodium album), poinsettia, wild (wild poinsettia, Euphorbia heterophylla), pigweed, palmer (palmer pigweed, Amaranthus palmeri), waterhemp (common waterhemp, Amaranthus rudis), smartweed (ladysthumb smartweed, Polygonum persicaria), surinam grass (Brachiaria decumbens), crabgrass, large (large crabgrass, Digitaria sanguinalis), crabgrass, Brazil (Brazilian crabgrass, Digitaria horizontalis), panicum, fall (fall panicum, Panicum dichotomiflorum), foxtail, giant (giant foxtail, Setaria faberii), foxtail, green (green foxtail, Setaria viridis), goosegrass (Eleusine indica), johnsongrass (Sorghum halepense), ragweed (common ragweed, Ambrosia elation), barnyardgrass (Echinochloa crus-galli), sandbur (southern sandbur, Cenchrus echinatus), arrowleaf sida (Sida rhombifolia), ryegrass, Italian (Italian ryegrass, Lolium multiflorum), dayflower, (VA) (Virginia dayflower, Commelina virginica), field bindweed (Convolvulus arvensis), cocklebur (common cocklebur, Xanthium strumarium), morningglory (Ipomoea coccinea), nightshade (eastern black nightshade, Solanum ptycanthum), kochia (Kochia scoparia), nutsedge, yellow (yellow nutsedge, Cyperus esculentus) and beggarticks (hairy beggarticks, Bidens pilosa) were planted into a silt loam soil and treated preemergence with test chemicals formulated in a non-phytotoxic solvent mixture which included a surfactant. At the same time, plants selected from these crop and weed species were planted in pots containing a growing medium comprising spaghnum peat moss, vermiculite, wetting agent and starter nutrients and treated with postemergence applications of some of the test chemicals formulated in the same manner. Plants ranged in height from 2 to 18 cm for postemergence treatments (1- to 4-leaf stage).
as §2

Experiment [4] relates to arrowleaf sida (Sida rhombifolia). Briefly: Test E pre-/postemergence: arrowleaf sida. The following applies: scale 0 to 100.
Text: as §3, §2

For experiment [5], the system named is goosegrass (Eleusine indica). Briefly: Test E pre-/postemergence: goosegrass. The following applies: Preemergence, scale 0 to 100.
Text: as §3, §2

In experiment [6] the test system is barnyardgrass (Echinochloa crus-galli). Briefly: Test C pre-/postemergence: barnyardgrass. The following applies: Preemergence, 250 g ai/ha; scale 0 to 100, 0 no effect, 100 complete control. From the text: Seeds of plant species selected from blackgrass (Alopecurus myosuroides), bromegrass, downy (downy bromegrass, Bromus tectorum), foxtail, green (green foxtail, Setaria viridis), ryegrass, Italian (Italian ryegrass, Lolium multiflorum), winter wheat (Triticum aestivum), wild oat (Avena fatua), galium (catchweed bedstraw, Galium aparine), bermudagrass (Cynodon dactylon), surinam grass (Brachiaria decumbens), cocklebur (common cocklebur, Xanthium strumarium), corn (Zea mays), large crabgrass (Digitaria sanguinalis), woolly cupgrass (Eriochloa villosa), foxtail, giant (giant foxtail, Setaria faberii), goosegrass (Eleusine indica), johnsongrass (Sorghum halepense), kochia (Kochia scoparia), lambsquarters (Chenopodium album), morningglory (Ipomoea coccinea), nightshade (eastern black nightshade, Solanum ptycanthum), nutsedge, yellow (yellow nutsedge, Cyperus esculentus), pigweed (Amaranthus retroflexus), ragweed (common ragweed, Ambrosia elation), soybean (Glycine max), common (oilseed) sunflower (Helianthus annuus), Russian thistle (Salsola kali) and velvetleaf (Abutilon theophrasti) were planted into a blend of loam soil and sand and treated preemergence with test chemicals formulated in a non-phytotoxic solvent mixture which included a surfactant.
At the same time, plants selected from these crop and weed species and also barley (winter barley, Hordeum vulgare), canarygrass (Phalaris minor), chickweed (common chickweed, Stellaria media) windgrass (Apera spica-venti) and deadnettle (henbit deadnettle, Lamium amplexicaule) were planted in pots containing Redi-Earth® planting medium (Scotts Company, 14111 Scottslawn Road, Marysville, Ohio 43041) comprising spaghnum peat moss, vermiculite, wetting agent and starter nutrients and treated with postemergence applications of test chemicals formulated in the same manner. Plants ranged in height from 2 to 18 cm (1- to 4-leaf stage) for postemergence treatments.
Treated plants and controls were maintained in a greenhouse for 13 to 15 days, after which time all species were compared to controls and visually evaluated. Plant response ratings, summarized in Table C, are based on a scale of 0 to 100 where 0 is no effect and 100 is complete control. A dash (-) response means no test result.

Where [7] appears, read: Preemergence, 16 g ai/ha, scale 0 to 100 (0 no effect, 100 complete control).
The mark [8] stands for this setting: Preemergence, 31 g ai/ha, scale 0 to 100 (0 no effect, 100 complete control).
[9] abbreviates: Preemergence, 62 g ai/ha, scale 0 to 100.
The mark [10] stands for this setting: 31 g ai/ha, scale 0 to 100 (0 no effect, 100 complete control).
Where [11] appears, read: Postemergence, 8 g ai/ha, scale 0 to 100.
Setting [12] is: Postemergence, 16 g ai/ha, scale 0 to 100.
Setting [13] is: Postemergence, 31 g ai/ha, scale 0 to 100.
Setting [14] is: Postemergence, 62 g ai/ha, scale 0 to 100.

As for `Fc1ccc(-n2nc(Cc3ccnc(C(F)(F)F)c3)c(OCC(F)(F)F)n2)cc1` [Compound 142], the “Plant response rating, Barnyardgrass” value was determined as 0 in experiment [1] (setting [7]); 5 in experiment [1] (setting [8]); 30 in experiment [1] (setting [9]); 80 in experiment [1] (Preemergence, 125 g ai/ha, scale 0 to 100). For the same compound, the “Plant response rating, Cocklebur” value amounted to 0 in experiment [2] (16 g ai/ha, scale 0 to 100 (0 no effect, 100 complete control)); 0 in experiment [2] (setting [10]); 0 in experiment [2] (62 g ai/ha, scale 0 to 100).

On to `Cc1nn(-c2ccc(F)cc2)nc1Cc1ccnc(C(F)(F)F)c1` [Compound 16, 4-[[2-(4-fluorophenyl)-5-methyl-2H-1,2,3-triazol-4-yl]methyl]-2-(trifluoromethyl)pyridine], for which the “Plant response rating: Waterhemp” value in experiment [3] (Preemergence, 8 g ai/ha) was found to be 60; in experiment [3] (Preemergence, 16 g ai/ha) it was 70; in experiment [3] (Preemergence, 31 g ai/ha), 100; in experiment [3] (Preemergence, 62 g ai/ha), 100; in experiment [3] (Preemergence, 125 g ai/ha) it was 100. Further, the “Plant response rating: Arrowleaf Sida” value is 0 in experiment [4] (Preemergence, 8 g ai/ha); 0 in experiment [4] (Preemergence, 16 g ai/ha); 0 in experiment [4] (Preemergence, 31 g ai/ha); 0 in experiment [4] (Preemergence, 62 g ai/ha); 35 in experiment [4] (Preemergence, 125 g ai/ha). The “Plant response rating: Goosegrass” value is given as 40 in experiment [5] (8 g ai/ha); 40 in experiment [5] (16 g ai/ha); 98 in experiment [5] (31 g ai/ha); 100 in experiment [5] (62 g ai/ha); 100 in experiment [5] (125 g ai/ha).

For the compound `Cc1nn(-c2ccc(C(F)(F)F)c(F)c2)nc1Cc1ccnc(C(F)(F)F)c1` [Compound 162], the “Plant response rating, Barnyardgrass” value in experiment [6] came to 100; in experiment [1] (Postemergence, 4 g ai/ha, scale 0 to 100), 10; in experiment [1] (setting [11]), 10; in experiment [1] (setting [12]) it was 10; in experiment [1] (setting [13]) it was 25; in experiment [1] (setting [14]), 35. The “Plant response rating, Barnyardgrass” value is recorded as 0 in experiment [1] (Preemergence, 4 g ai/ha, scale 0 to 100, 0 no effect, 100 complete control); 20 in experiment [1] (Preemergence, 8 g ai/ha, scale 0 to 100, 0 no effect, 100 complete control); 20 in experiment [1] (setting [7]); 30 in experiment [1] (setting [8]); 30 in experiment [1] (setting [9]). For the same compound, the “Plant response rating, Cocklebur” value in experiment [2] (4 g ai/ha, scale 0 to 100, 0 no effect, 100 complete control) amounted to 0; in experiment [2] (8 g ai/ha, scale 0 to 100, 0 no effect, 100 complete control), 0; in experiment [2] (setting [10]), 0; in experiment [2] (62 g ai/ha, scale 0 to 100), 0.

As to `CCc1nn(-c2ccc(F)cc2)nc1Oc1ccnc(C(F)(F)F)c1` [Compound 166], in experiment [6], the “Plant response rating, Barnyardgrass” value was 100.

With `Cc1nn(-c2ccc(F)cc2)nc1Oc1ccnc(C(F)(F)F)c1` [Compound 129, 4-[[2-(4-fluorophenyl)-5-methyl-2H-1,2,3-triazol-4-yl]oxy]-2-(trifluoromethyl)pyridine], the “Plant response rating: Waterhemp” value in experiment [3] (Preemergence, 8 g ai/ha) is 20; in experiment [3] (Preemergence, 16 g ai/ha) it was 35; in experiment [3] (Preemergence, 31 g ai/ha), 80; in experiment [3] (Preemergence, 62 g ai/ha) it was 100; in experiment [3] (Preemergence, 125 g ai/ha) it was 100. The “Plant response rating: Arrowleaf Sida” value in experiment [4] (Preemergence, 8 g ai/ha) is reported as 0; in experiment [4] (Preemergence, 16 g ai/ha), 0; in experiment [4] (Preemergence, 31 g ai/ha), 0; in experiment [4] (Preemergence, 62 g ai/ha), 30; in experiment [4] (Preemergence, 125 g ai/ha), 30. The “Plant response rating: Goosegrass” value in experiment [5] (8 g ai/ha) worked out at 40; in experiment [5] (16 g ai/ha), 40; in experiment [5] (31 g ai/ha), 50; in experiment [5] (62 g ai/ha), 60; in experiment [5] (125 g ai/ha), 100.

For the compound `CCCc1nn(-c2ccc(C(F)(F)F)c(F)c2)nc1Oc1ccnc(C(F)(F)F)c1` [Compound 185], in experiment [6], the “Plant response rating, Barnyardgrass” value is 100.

Take `Cc1nn(-c2ccc(C(F)(F)F)cc2)nc1Cc1ccnc(C(F)(F)F)c1` [Compound 47, 4-[[5-methyl-2-[4-(trifluoromethyl)phenyl]-2H-1,2,3-triazol-4-yl]methyl]-2-(trifluoromethyl)pyridine]: the “Plant response rating: Waterhemp” value came out at 95 in experiment [3] (Postemergence, 250 g ai/ha); 60 in experiment [3] (Postemergence, 16 g ai/ha); 70 in experiment [3] (Postemergence, 31 g ai/ha); 80 in experiment [3] (Postemergence, 62 g ai/ha); 85 in experiment [3] (Postemergence, 125 g ai/ha); 100 in experiment [3] (Preemergence, 16 g ai/ha). Also, the “Plant response rating: Waterhemp” value is 100 in experiment [3] (Preemergence, 31 g ai/ha); 100 in experiment [3] (Preemergence, 62 g ai/ha); 100 in experiment [3] (Preemergence, 125 g ai/ha); 100 in experiment [3] (Preemergence, 250 g ai/ha). Besides, the “Plant response rating: Arrowleaf Sida” value in experiment [4] (Postemergence, 250 g ai/ha) came out at 85; in experiment [4] (Postemergence, 16 g ai/ha), 50; in experiment [4] (Postemergence, 31 g ai/ha), 60; in experiment [4] (Postemergence, 62 g ai/ha), 70; in experiment [4] (Postemergence, 125 g ai/ha) it was 80; in experiment [4] (Preemergence, 16 g ai/ha), 0. Moreover, the “Plant response rating: Arrowleaf Sida” value in experiment [4] (Preemergence, 31 g ai/ha) stood at 20; in experiment [4] (Preemergence, 62 g ai/ha), 40; in experiment [4] (Preemergence, 125 g ai/ha) it was 60; in experiment [4] (Preemergence, 250 g ai/ha) it was 95. Further, the “Plant response rating: Goosegrass” value in experiment [5] (16 g ai/ha), in experiment [5] (31 g ai/ha), in experiment [5] (125 g ai/ha) and in experiment [5] (250 g ai/ha) was 100 in each case.

On to `Cc1nn(-c2ccc(F)c(F)c2)nc1Oc1ccnc(C(F)(F)F)c1` [Compound 145], for which the “Plant response rating, Barnyardgrass” value in experiment [1] (setting [11]) was 20; in experiment [1] (setting [12]), 20; in experiment [1] (setting [13]), 30; in experiment [1] (setting [14]) it was 30; in experiment [1] (Postemergence, 125 g ai/ha, scale 0 to 100), 40.

These data come from patent US9302999B2, “Substituted triazoles as herbicides” (E. I. DU PONT DE NEMOURS AND COMPANY, priority 2012, dated 2016).
